According to BindingDB's records for doi:10.1021/jm00177a018 (1980):

The molecules below were run against Aldehyde oxidase (Oryctolagus cuniculus) (assay: Tested for its ability to inhibit rabbit liver aldehyde oxidase catalyzed oxidation of N-methyl-nicotinamide (NMN)).
With `CCOC(CCP(=O)(OCC)OCC)OCC` the Ki was 200 µM. In the case of `CCOP(=O)(CC=O)OCC`, the Ki is reported as 300 µM. In the case of `CCOP(=O)(CCC=O)c1ccccc1` (stereo not drawn), the Ki is reported as 100 µM.
